Test results taken from patent publication US9708314B2, “Heterocyclic amide compound” (NISSAN CHEMICAL INDUSTRIES, LTD., priority 2013, dated 2017).

Key:
Assay type in all cases: in vivo
[1] = test system: Scirpus juncoides; test: Test Example 1: herbicidal activity, application before weed generation in submerged conditions; settings: Application herbicide amount 320 g/ha; Seventeenth Table
Method in brief: (§1)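 Water-diluted emulsion formulation is applied onto flood water (4 cm deep) covering alluvial soil on the day weed seeds are sown, after transplanting 2.5 leaf stage rice. Rates are expressed per hectare. Injury or control is graded 0–5 three weeks later.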

[2] = test system: Monochoria vaginalis; test: as above; settings: Application herbicide amount 320 g/ha; Seventeenth Table
Method in brief: as §1

[3] = test system: Echinochloa oryzacola Vasing.; test: as above; settings: Application herbicide amount 320 g/ha; Seventeenth Table
Method in brief: as §1

[4] = test system: Stellaria media; test: Test Example 4: herbicidal effect by application to foliage (diluvial soil, plastic box); settings: application to foliage, application herbicide amount 320 g/ha
Method in brief: (§2)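 Greenhouse plants (25° C. to 30° C., 14 d, diluvial soil) receive a foliar spray of water-diluted emulsifiable formulation at defined g/ha. Grading after 3 weeks uses a six-step herbicidal-ratio scale, with 4 covering 70% to <90% and 1 covering 5% to <20%.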

[5] = test system: Amaranthus retroflexus; test: as above; settings: application to foliage, application herbicide amount 320 g/ha
Method in brief: as §2

[6] = test system: Avena fatua; test: as above; settings: application to foliage, application herbicide amount 320 g/ha
Method in brief: as §2

[7] = test system: Alopecurus myosuroides; test: as above; settings: application to foliage, application herbicide amount 320 g/ha
Method in brief: as §2

[8] = test system: Galium spurium; test: as above; settings: application to foliage, application herbicide amount 320 g/ha
Method in brief: as §2

[9] = test system: Apera spica-venti.; test: as above; settings: application to foliage, application herbicide amount 320 g/ha
Method in brief: as §2

[10] = test system: Setaria viridis; test: as above; settings: application to foliage, application herbicide amount 320 g/ha
Method in brief: as §2

[11] = test system: Abutilon theophrasti; test: as above; settings: application to foliage, application herbicide amount 320 g/ha
Method in brief: as §2

[12] = test system: Veronica persica; test: as above; settings: application to foliage, application herbicide amount 320 g/ha
Method in brief: as §2

[13] = test system: Echinochloa crus-galli var. crus-galli; test: as above; settings: application to foliage, application herbicide amount 320 g/ha
Method in brief: as §2

[14] = test system: Digitaria ciliaris; test: as above; settings: application to foliage, application herbicide amount 320 g/ha
Method in brief: as §2

[15] = test system: Chenopodium album; test: as above; settings: application to foliage, application herbicide amount 320 g/ha
Method in brief: as §2

[16] = test system: Lolium multiflorum Lam.; test: as above; settings: application to foliage, application herbicide amount 320 g/ha
Method in brief: as §2

[17] = test system: Triticum aestivum; test: Test Example 4: effect on crop by application to foliage (diluvial soil, plastic box); settings: application to foliage, application herbicide amount 320 g/ha
Method in brief: as §2

[18] = test system: Zea mays; test: as above; settings: application to foliage, application herbicide amount 320 g/ha
Method in brief: as §2

[19] = test system: directly sowed Oryza sativa; test: as above; settings: application to foliage, application herbicide amount 320 g/ha
Method in brief: as §2

[20] = test system: Brassica campestris L.; test: as above; settings: application to foliage, application herbicide amount 320 g/ha
Method in brief: as §2

[21] = test system: Glycine max; test: as above; settings: application to foliage, application herbicide amount 320 g/ha
Method in brief: as §2

[22] = test system: Beta vulgaris ssp. vulgaris; test: as above; settings: application to foliage, application herbicide amount 320 g/ha
Method in brief: as §2

SMILES	B: Scirpus juncoides (herbicidal effect grade) [1]	C: Monochoria vaginalis (herbicidal effect grade) [2]	A: Echinochloa oryzicola Vasing. (herbicidal effect grade) [3]	P: herbicidal effect on Stellaria media [4]	N: herbicidal effect on Amaranthus retroflexus [5]	I: herbicidal effect on Avena fatua [6]	J: herbicidal effect on Alopecurus myosuroides [7]	Q: herbicidal effect on Galium spurium [8]	L: herbicidal effect on Apera spica-venti. [9]	G: herbicidal effect on Setaria viridis [10]	M: herbicidal effect on Abutilon theophrasti [11]	R: herbicidal effect on Veronica persica [12]	H: herbicidal effect on Echinochloa crus-galli var. crus-galli [13]	F: herbicidal effect on Digitaria ciliaris [14]	O: herbicidal effect on Chenopodium album [15]	K: herbicidal effect on Lolium multiflorum Lam. [16]	e: effect on crop, Triticum aestivum [17]	c: effect on crop, Zea mays [18]	b: effect on crop, directly sowed Oryza sativa [19]	g: effect on crop, Brassica campestris L. [20]	other results
COCCOCc1nnc2c(C(=O)Nc3nnnn3C)ccc(C(F)(F)F)n12 [2-014]	5 (Herbicidal ratio of 90% or more (almost completely withered))	5 (Herbicidal ratio of 90% or more (almost completely withered))	5 (Herbicidal ratio of 90% or more (almost completely withered))	5 (Herbicidal ratio of 90% or more (almost completely withered))	5 (Herbicidal ratio of 90% or more (almost completely withered))	4 (Herbicidal ratio of 70% or more and less than 90%)	4 (Herbicidal ratio of 70% or more and less than 90%)	4 (Herbicidal ratio of 70% or more and less than 90%)	4 (Herbicidal ratio of 70% or more and less than 90%)	5 (Herbicidal ratio of 90% or more (almost completely withered))	5 (Herbicidal ratio of 90% or more (almost completely withered))	5 (Herbicidal ratio of 90% or more (almost completely withered))	5 (Herbicidal ratio of 90% or more (almost completely withered))	5 (Herbicidal ratio of 90% or more (almost completely withered))	5 (Herbicidal ratio of 90% or more (almost completely withered))	4 (Herbicidal ratio of 70% or more and less than 90%)	4 (Herbicidal ratio of 70% or more and less than 90%)	3 (Herbicidal ratio of 40% or more and less than 70%)	5 (Herbicidal ratio of 90% or more (almost completely withered))	4 (Herbicidal ratio of 70% or more and less than 90%)	d: effect on crop, Glycine max [21]: 4 (Herbicidal ratio of 70% or more and less than 90%); f: effect on crop, Beta vulgaris ssp. vulgaris [22]: 5 (Herbicidal ratio of 90% or more (almost completely withered))
Cn1nnnc1NC(=O)c1ccc(C(F)(F)F)n2c(COCC(F)(F)F)nnc12 [2-015]	5 (Herbicidal ratio of 90% or more (almost completely withered))	5 (Herbicidal ratio of 90% or more (almost completely withered))	5 (Herbicidal ratio of 90% or more (almost completely withered))	4 (Herbicidal ratio of 70% or more and less than 90%)	5 (Herbicidal ratio of 90% or more (almost completely withered))	2 (Herbicidal ratio of 20% or more and less than 40%)	2 (Herbicidal ratio of 20% or more and less than 40%)	3 (Herbicidal ratio of 40% or more and less than 70%)	2 (Herbicidal ratio of 20% or more and less than 40%)	4 (Herbicidal ratio of 70% or more and less than 90%)	5 (Herbicidal ratio of 90% or more (almost completely withered))	3 (Herbicidal ratio of 40% or more and less than 70%)	5 (Herbicidal ratio of 90% or more (almost completely withered))	5 (Herbicidal ratio of 90% or more (almost completely withered))	5 (Herbicidal ratio of 90% or more (almost completely withered))	2 (Herbicidal ratio of 20% or more and less than 40%)	2 (Herbicidal ratio of 20% or more and less than 40%)	2 (Herbicidal ratio of 20% or more and less than 40%)	4 (Herbicidal ratio of 70% or more and less than 90%)	3 (Herbicidal ratio of 40% or more and less than 70%)	d: effect on crop, Glycine max [21]: 2 (Herbicidal ratio of 20% or more and less than 40%); f: effect on crop, Beta vulgaris ssp. vulgaris [22]: 4 (Herbicidal ratio of 70% or more and less than 90%)
CCC(C)c1nnc2c(C(=O)Nc3nnnn3C)ccc(C(F)(F)F)n12 (stereo not drawn) [2-016]	5 (Herbicidal ratio of 90% or more (almost completely withered))	5 (Herbicidal ratio of 90% or more (almost completely withered))	5 (Herbicidal ratio of 90% or more (almost completely withered))	5 (Herbicidal ratio of 90% or more (almost completely withered))	5 (Herbicidal ratio of 90% or more (almost completely withered))	4 (Herbicidal ratio of 70% or more and less than 90%)	4 (Herbicidal ratio of 70% or more and less than 90%)	3 (Herbicidal ratio of 40% or more and less than 70%)	4 (Herbicidal ratio of 70% or more and less than 90%)	5 (Herbicidal ratio of 90% or more (almost completely withered))	5 (Herbicidal ratio of 90% or more (almost completely withered))	5 (Herbicidal ratio of 90% or more (almost completely withered))	5 (Herbicidal ratio of 90% or more (almost completely withered))	5 (Herbicidal ratio of 90% or more (almost completely withered))	5 (Herbicidal ratio of 90% or more (almost completely withered))	4 (Herbicidal ratio of 70% or more and less than 90%)	4 (Herbicidal ratio of 70% or more and less than 90%)	1 (Herbicidal ratio of 5% or more and less than 20%)	5 (Herbicidal ratio of 90% or more (almost completely withered))	4 (Herbicidal ratio of 70% or more and less than 90%)	d: effect on crop, Glycine max [21]: 4 (Herbicidal ratio of 70% or more and less than 90%); f: effect on crop, Beta vulgaris ssp. vulgaris [22]: 5 (Herbicidal ratio of 90% or more (almost completely withered))
